The structures appear in SMILES notation. The source made the active and inactive calls.

Assay [1] can be described thus: luciferase reporter signal suppression in cells – H4 neuroglioma cells, luminescence, dose response (AID 1990). The format is functional, cell-based.
For assay [2], the target named is Sphingosine 1-phosphate receptor 2 (Homo sapiens, UniProt O95136). The experiment in a line: Dose Response Cell Based Assay for Antagonists of the S1P2 Receptor. [Related pubchem assays: 856, 736 ]. The format is functional.
Sequence of Sphingosine 1-phosphate receptor 2 (O95136 whole entry): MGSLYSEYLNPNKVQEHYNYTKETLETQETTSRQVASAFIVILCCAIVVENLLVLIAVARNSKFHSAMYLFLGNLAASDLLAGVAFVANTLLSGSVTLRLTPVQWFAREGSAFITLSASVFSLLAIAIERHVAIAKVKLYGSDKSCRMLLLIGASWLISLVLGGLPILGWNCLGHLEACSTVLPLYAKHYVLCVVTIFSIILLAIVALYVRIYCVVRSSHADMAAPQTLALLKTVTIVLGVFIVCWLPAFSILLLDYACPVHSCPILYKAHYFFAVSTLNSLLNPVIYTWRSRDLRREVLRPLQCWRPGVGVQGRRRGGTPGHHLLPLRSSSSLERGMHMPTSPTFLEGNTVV
Assay [3] is described as follows: Luminescence-based dose response cell-based high throughput screening assay for cytotoxic compounds using the IEC-6 intestinal epithelial cell line. [Related pubchem assays: 1858 (Summary AID.), 1825 (Counterscreen.), 1907 (Confirmation screen.)]. It is filed as functional. A general note: Counterscreens check selectivity or assay interference.
Assay [4] concerns the target T1, Kappa-type opioid receptor (Homo sapiens, UniProt P41145). The format is functional.
For another assay, the target named is Beta-galactosidase (Escherichia coli, UniProt Q8VNN2). It is filed as functional.
Sequence of Beta-galactosidase (Q8VNN2 whole entry): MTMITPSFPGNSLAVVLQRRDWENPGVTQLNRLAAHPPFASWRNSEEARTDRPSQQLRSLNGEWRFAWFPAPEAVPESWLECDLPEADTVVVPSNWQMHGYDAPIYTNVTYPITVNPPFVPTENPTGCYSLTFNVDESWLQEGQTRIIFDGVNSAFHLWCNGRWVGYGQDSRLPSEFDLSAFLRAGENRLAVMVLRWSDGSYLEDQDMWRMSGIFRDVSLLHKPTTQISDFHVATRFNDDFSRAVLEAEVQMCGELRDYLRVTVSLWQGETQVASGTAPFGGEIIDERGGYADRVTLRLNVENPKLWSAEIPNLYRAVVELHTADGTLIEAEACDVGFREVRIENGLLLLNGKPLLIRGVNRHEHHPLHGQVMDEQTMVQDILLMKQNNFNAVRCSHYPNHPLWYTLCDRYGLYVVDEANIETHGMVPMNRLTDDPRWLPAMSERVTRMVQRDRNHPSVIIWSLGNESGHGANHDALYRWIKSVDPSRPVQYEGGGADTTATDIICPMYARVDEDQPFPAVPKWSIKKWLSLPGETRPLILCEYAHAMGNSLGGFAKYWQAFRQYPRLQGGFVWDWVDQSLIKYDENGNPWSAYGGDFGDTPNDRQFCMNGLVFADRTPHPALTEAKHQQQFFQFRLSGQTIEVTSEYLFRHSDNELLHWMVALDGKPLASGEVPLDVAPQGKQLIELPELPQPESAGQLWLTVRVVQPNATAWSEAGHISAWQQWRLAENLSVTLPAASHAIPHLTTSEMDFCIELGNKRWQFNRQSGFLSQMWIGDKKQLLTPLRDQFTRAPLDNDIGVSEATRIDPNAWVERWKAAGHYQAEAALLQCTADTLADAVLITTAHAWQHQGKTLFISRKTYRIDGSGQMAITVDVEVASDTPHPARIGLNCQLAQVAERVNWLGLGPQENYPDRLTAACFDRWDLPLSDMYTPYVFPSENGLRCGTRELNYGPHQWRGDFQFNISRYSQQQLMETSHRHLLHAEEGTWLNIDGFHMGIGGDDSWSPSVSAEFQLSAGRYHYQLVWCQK
Assay [5] has as its target T1, Kappa-type opioid receptor. It is filed as functional. The source holds these as a separate data set.
For another assay, the system named is CHO. The experiment in a line: CHO cell viability loss, potency – luminescence, cytotoxicity control for TLR9-MyD88 binding inhibitor project, dose response (AID 588339).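 Further: CHO cells stably coexpressing TLR9 and MyD88 fusions from primary screen; compound exposure lasted 48 hours before viability readout.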 The format is functional, cell-based, hamster. As to conditions: Cricetulus griseus.
Assay [6] is described as follows: non-specific 3'UTR reporter inhibition in Clone20-Shn3RL – cell-based, Renilla luciferase, cherry-picked, counter-screen for Shn3 inhibitor project, dose response (AID 624133). The format is functional.
The target in assay [7] is Photoreceptor-specific nuclear receptor (Homo sapiens, UniProt Q9Y5X4). The format is functional, cell-based.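 Further: CHO-S cells with Gal4-NCOR and VP16-NR2E3 two-hybrid luciferase reporter.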
Sequence of Photoreceptor-specific nuclear receptor (Q9Y5X4 whole entry, the tested form may be a part): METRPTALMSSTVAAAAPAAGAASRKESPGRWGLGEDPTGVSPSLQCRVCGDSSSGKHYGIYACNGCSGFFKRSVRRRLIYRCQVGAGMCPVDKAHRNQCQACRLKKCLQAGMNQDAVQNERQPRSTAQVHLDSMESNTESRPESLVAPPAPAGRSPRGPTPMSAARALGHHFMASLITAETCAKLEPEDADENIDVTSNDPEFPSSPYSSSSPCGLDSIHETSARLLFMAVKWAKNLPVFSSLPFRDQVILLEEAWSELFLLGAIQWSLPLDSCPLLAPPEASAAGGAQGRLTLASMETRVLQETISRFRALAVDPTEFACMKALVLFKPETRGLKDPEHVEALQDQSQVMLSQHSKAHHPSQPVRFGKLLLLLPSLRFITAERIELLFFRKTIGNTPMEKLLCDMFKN
For assay [8], the target named is T2, Rac GTPase-activating protein 1 (Homo sapiens, UniProt Q9H0H5).
T2 sequence (Q9H0H5 whole entry): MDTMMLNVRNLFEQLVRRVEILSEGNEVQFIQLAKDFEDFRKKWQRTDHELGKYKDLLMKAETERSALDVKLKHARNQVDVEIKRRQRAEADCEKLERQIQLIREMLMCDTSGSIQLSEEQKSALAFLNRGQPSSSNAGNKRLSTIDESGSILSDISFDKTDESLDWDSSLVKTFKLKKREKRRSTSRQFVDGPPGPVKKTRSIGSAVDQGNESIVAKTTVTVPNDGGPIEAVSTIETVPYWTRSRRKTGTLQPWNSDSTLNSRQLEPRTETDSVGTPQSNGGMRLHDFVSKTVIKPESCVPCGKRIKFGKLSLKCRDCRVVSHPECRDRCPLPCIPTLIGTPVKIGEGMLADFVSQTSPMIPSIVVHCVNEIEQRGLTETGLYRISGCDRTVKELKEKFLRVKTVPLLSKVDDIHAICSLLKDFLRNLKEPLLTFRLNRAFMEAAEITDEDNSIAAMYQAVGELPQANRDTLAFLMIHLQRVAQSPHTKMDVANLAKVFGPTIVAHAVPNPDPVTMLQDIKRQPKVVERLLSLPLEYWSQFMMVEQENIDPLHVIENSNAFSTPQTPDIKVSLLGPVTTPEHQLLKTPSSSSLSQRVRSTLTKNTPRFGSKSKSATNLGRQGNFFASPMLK
Kind of assay: blockers of MgcRacGAP-driven Rac1 GTP hydrolysis – biochemical, ADP Hunter fluorescence, primary and confirmatory, confirmation (AID 624330). The format is functional.

A short description of assay [9]: reduced cellular PGC1a acetyl-lysine signal – cell-based, cherry-picked samples, dose response (AID 720514).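 Further: potency may reflect raised or lowered acetylation signal.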 The format is functional.
The target in assay [10] is Serine/threonine-protein phosphatase PP1-alpha catalytic subunit (Homo sapiens, UniProt P62136). Kind of assay: inhibition of protein phosphatase 1 activity – biochemical, fluorescence, dose response (AID 2394).
Sequence of Serine/threonine-protein phosphatase PP1-alpha catalytic subunit (P62136 whole entry): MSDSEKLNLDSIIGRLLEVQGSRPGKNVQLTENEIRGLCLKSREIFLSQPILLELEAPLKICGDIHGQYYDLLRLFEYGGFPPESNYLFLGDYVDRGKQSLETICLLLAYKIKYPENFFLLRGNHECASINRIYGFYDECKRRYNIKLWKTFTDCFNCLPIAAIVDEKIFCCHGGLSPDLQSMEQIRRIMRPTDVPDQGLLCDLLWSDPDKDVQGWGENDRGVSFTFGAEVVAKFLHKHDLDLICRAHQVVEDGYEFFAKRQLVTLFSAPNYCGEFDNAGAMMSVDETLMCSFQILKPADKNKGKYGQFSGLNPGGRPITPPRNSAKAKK
Assay [11] has as its target T3, Zinc finger protein mex-5 (Caenorhabditis elegans, UniProt Q9XUB2).
T3 sequence (Q9XUB2 whole entry): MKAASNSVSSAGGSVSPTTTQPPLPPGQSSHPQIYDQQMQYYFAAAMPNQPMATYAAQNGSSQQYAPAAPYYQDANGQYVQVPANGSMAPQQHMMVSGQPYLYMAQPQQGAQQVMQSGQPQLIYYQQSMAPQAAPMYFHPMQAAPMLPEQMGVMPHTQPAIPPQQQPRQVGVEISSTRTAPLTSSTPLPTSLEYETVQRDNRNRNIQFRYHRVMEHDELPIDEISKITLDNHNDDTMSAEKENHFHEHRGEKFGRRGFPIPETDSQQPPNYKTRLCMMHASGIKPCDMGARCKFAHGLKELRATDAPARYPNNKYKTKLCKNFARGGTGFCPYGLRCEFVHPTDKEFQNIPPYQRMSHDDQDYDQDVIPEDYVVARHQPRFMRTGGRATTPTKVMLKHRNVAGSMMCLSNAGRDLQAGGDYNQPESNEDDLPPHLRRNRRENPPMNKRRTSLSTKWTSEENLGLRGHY
Kind of assay: potency of MEX-5 RNA-binding blockers – biochemical, C. elegans, fluorescence polarization, dose response (AID 1960). On the technique in general: Polarisation of emitted light reports the rotation of a fluorescent probe.

Assay [12] has as its target Serine/threonine-protein phosphatase (Homo sapiens, UniProt Q9BPW0). The experiment in a line: inhibition of protein phosphatase 5 activity – biochemical, fluorescence, dose response (AID 2395).
The target in a further assay is Hexokinase HKDC1 (Homo sapiens, UniProt Q2TB90). The experiment in a line: inhibition of HKDC1 glucose phosphorylation – biochemical, W721R variant, dose response (AID 504729). It is filed as functional.
Sequence of Hexokinase HKDC1 (Q2TB90 whole entry): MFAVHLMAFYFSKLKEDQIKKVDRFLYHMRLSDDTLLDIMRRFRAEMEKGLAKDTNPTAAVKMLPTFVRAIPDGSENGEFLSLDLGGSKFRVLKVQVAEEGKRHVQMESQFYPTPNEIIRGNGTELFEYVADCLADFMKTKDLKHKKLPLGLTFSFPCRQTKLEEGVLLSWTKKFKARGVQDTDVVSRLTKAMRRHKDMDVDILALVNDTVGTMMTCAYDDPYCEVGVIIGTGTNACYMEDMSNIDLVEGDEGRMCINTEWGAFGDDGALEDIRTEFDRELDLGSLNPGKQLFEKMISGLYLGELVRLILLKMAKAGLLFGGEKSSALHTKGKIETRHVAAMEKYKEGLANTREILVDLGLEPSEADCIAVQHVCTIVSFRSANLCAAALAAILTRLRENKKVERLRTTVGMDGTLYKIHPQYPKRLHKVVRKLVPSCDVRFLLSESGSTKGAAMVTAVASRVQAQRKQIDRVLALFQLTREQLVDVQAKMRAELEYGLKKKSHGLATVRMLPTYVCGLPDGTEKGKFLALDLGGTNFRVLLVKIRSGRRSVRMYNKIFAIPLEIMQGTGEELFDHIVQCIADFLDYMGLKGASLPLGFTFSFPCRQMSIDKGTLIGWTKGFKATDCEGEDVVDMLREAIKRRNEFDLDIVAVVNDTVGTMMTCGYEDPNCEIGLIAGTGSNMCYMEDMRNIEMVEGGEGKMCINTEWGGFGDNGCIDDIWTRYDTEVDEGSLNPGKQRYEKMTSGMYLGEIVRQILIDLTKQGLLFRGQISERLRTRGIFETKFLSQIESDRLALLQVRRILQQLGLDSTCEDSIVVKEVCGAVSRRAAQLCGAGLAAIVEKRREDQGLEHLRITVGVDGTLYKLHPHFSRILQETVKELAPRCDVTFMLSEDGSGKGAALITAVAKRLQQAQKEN
The target of assay [13] is T4, Mitochondrial peptide methionine sulfoxide reductase (Bos taurus, UniProt P54149).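 Further: absorbance read-out, biochemical high-throughput dose-response screen for MsrA inhibitors, confirmatory; recombinant bovine MsrA coupled to E. coli TrxB with NADPH and selenocystamine; potency is for inhibitors of MsrA activity on DMSO substrate.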
T4 sequence (P54149 whole entry): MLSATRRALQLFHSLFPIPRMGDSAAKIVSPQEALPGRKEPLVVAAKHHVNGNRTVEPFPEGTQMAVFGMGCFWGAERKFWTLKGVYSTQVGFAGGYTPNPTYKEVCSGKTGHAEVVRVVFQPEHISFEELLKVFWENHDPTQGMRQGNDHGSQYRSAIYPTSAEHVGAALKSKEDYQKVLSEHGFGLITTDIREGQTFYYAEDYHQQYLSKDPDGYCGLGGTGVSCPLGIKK
It is filed as functional.

T1 sequence (P41145 whole entry): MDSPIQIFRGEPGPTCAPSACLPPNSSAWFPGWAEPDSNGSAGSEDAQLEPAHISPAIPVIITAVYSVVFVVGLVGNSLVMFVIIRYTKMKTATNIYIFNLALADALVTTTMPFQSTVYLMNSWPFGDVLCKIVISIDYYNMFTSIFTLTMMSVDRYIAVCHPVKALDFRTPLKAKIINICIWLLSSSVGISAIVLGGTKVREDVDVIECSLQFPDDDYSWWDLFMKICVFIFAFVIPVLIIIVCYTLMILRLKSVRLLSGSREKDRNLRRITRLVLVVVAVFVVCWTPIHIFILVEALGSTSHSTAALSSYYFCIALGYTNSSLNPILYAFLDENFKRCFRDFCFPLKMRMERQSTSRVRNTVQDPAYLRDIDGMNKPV
Sequence of Serine/threonine-protein phosphatase (Q9BPW0 whole entry): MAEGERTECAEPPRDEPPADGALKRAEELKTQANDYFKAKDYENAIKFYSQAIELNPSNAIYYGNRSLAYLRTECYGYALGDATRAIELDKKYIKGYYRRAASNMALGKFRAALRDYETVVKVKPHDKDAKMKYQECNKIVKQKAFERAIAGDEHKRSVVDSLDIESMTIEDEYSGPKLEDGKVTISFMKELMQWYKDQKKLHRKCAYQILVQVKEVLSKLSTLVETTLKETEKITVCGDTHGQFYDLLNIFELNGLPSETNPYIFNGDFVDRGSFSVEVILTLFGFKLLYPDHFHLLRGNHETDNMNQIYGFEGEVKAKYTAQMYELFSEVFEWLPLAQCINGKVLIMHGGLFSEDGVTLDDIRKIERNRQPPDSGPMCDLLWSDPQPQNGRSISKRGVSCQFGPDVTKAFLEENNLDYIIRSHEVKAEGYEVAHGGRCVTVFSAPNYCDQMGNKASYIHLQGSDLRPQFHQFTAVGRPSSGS

As usually defined, the EC50 is the concentration giving half of the maximal effect. For orientation: IC50 means the concentration at which inhibition is half-maximal. As usually defined, the AC50 is the concentration giving half of the maximal activity seen. For `COc1ccc(NC(=O)/C(Cl)=C(/Cl)[S+]([O-])Cc2ccccc2)cn1` (stereo unspecified), the EC50 in assay [1] was 5.93 µM (active); on Beta-galactosidase, > 31.5 µM (inactive). Also, the IC50 in [2] is 0.942 µM (active); in assay [3], 1.27 µM (active); in [4], 7.1 µM (active); in assay [5] it was 7.62 µM; in the assay on CHO, 0.453 µM (active); in assay [7], 0.92 µM (active). Moreover, the IC50 in assay [8] is 36.5 µM (active). The results for the AC50 in assay [6] and in assay [9] were < 0.26 µM (active) and 1.65 µM (active), respectively.

In the case of `Cc1ccc(S(=O)(=O)/N=C2\C=C(Nc3cccc(C(=O)O)c3)C(=O)c3ccccc32)c(C)c1`, the IC50 is 27.1 µM (not active) in [10], 12.3 µM (not active) in [12], 8.6 µM (active) at Hexokinase HKDC1 and 74.5 µM (inactive) in assay [13]. Also, the EC50 in assay [11] is 31.7 µM (active).

The values above are taken from ChEMBL document CHEMBL1201862, “PubChem BioAssay data set” (2004).
